The first assay concerns NCI-H520. The assay can be described thus: Antiproliferative activity against human NCI-H520 cells assessed as inhibition of cell growth incubated for 72 hrs by MTT assay. Format: functional, cell-based. The settings on record: NCI-H520, 72 h. In general terms: Tetrazolium assays rely on reduction of a dye to a coloured formazan, in cell work by metabolically active cells.
Histone acetyltransferase p300, sequence (Q09472 whole entry): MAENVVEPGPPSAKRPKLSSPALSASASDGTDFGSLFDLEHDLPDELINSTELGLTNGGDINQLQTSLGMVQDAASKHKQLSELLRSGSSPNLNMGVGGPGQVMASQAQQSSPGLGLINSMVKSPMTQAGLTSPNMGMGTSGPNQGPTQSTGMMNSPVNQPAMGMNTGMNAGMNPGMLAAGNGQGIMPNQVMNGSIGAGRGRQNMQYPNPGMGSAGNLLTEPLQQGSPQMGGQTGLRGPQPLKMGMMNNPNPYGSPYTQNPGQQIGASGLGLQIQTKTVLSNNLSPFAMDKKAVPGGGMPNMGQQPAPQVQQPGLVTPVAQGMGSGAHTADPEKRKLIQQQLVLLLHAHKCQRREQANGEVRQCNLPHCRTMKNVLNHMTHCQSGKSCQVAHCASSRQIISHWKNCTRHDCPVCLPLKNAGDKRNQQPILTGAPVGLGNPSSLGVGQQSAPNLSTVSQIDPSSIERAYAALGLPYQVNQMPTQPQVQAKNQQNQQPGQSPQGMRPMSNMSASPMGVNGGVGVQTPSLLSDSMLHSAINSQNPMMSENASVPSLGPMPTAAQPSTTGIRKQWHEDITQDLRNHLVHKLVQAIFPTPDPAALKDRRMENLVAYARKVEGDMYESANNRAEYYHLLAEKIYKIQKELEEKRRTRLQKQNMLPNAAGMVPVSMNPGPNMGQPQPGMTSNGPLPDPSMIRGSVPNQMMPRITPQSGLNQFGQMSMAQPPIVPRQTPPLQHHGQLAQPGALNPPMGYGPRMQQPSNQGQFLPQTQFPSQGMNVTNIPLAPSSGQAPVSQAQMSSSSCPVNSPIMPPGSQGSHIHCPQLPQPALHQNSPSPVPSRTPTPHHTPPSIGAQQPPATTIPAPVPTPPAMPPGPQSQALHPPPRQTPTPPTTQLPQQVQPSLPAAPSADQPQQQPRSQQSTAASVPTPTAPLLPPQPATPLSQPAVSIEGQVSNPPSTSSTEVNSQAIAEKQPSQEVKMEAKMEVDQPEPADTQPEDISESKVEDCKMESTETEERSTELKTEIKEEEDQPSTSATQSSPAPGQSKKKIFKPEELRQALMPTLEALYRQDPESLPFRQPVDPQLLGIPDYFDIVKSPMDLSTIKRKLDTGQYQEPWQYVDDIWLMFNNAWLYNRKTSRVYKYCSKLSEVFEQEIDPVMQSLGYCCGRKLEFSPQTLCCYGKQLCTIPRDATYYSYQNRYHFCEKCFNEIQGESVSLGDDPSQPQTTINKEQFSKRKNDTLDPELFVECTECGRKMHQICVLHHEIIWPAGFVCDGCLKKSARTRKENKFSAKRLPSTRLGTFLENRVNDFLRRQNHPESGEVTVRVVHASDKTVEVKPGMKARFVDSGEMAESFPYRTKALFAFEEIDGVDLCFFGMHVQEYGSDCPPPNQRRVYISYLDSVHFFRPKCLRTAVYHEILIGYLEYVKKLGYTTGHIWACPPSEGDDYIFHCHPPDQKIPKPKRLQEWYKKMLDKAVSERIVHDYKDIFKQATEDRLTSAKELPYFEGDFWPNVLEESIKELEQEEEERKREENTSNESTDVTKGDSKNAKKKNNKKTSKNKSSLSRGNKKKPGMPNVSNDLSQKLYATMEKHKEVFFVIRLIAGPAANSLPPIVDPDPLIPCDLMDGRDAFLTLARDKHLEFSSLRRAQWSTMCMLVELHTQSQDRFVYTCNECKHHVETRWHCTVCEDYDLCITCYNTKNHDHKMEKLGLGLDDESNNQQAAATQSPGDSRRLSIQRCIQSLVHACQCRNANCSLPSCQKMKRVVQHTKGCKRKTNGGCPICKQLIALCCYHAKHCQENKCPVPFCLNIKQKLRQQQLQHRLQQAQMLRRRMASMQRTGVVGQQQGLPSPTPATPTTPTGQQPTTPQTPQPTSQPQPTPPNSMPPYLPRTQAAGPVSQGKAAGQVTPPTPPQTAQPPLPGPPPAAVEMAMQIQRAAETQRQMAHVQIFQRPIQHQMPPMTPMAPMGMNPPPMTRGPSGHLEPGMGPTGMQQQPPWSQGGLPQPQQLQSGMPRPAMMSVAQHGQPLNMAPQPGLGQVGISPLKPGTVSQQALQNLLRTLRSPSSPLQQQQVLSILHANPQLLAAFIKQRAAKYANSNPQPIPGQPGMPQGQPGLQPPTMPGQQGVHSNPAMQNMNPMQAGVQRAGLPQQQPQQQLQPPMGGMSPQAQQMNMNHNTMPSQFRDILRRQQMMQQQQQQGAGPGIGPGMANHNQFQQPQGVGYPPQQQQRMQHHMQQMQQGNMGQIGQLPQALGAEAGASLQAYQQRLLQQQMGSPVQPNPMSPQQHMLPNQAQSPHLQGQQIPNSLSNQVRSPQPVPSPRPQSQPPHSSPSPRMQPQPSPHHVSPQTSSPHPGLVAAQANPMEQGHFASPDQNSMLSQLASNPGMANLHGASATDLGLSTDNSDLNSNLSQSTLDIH
Consider `COC(=O)c1ccc(CCCCn2cc(-c3ccc(Cn4cc(F)c(N)nc4=O)cc3)nn2)cc1`, for which the IC50 was determined as 23200 nM.

`COC(=O)c1ccc(CCCCn2cc(-c3ccc(Cn4ccc(N)nc4=O)cc3)nn2)cc1`: the IC50 is 12200 nM.

A further assay has as its system MDA-MB-231. The assay can be described thus: Antiproliferative activity against human MDA-MB-231 cells assessed as inhibition of cell proliferation at 10 uM incubated for 72 hrs by MTT assay relative to control. Format: functional.
Conditions: not given
On to `COC(=O)c1ccc(CCCCn2cc(-c3ccc(Cn4cc(C)c(N)nc4=O)cc3)nn2)cc1`, for which the inhibition at 10 µM was over 50%.

A further assay has as its target Histone acetyltransferase p300 (Homo sapiens, UniProt Q09472).
Conditions: not given
Regarding `CCOC(=O)CCCCCn1cc(Cn2cnc(N)nc2=O)nn1`, it took 480 nM to reach half-maximal inhibition (IC50).

As for `Nc1ccn(Cc2ccc(-c3cn(CCCCCCC(=O)O)nn3)cc2)c(=O)n1`, the IC50 worked out at 960 nM.

`CCOC(=O)CCCCCn1cc(Cn2cc(C)c(N)nc2=O)nn1` returned an IC50 of 1100 nM.

Compound `CCOC(=O)CCCCCn1cc(Cn2cc(F)c(N)nc2=O)nn1` showed an IC50 of 800 nM.

Regarding `CCOC(=O)CCCCCCn1cc(-c2ccc(Cn3cnc(N)nc3=O)cc2)nn1`, the IC50 is 650 nM.

Compound `Nc1ccn(Cc2cn(CCCCc3ccc(C(=O)O)cc3)nn2)c(=O)n1` gave an IC50 of 4570 nM.

The compound `CCOC(=O)CCCCCn1cc(Cn2ccc(N)nc2=O)nn1` displayed an IC50 of 7800 nM.

Turning to `CCOC(=O)CCCCCCn1cc(-c2ccc(Cn3cc(F)c(N)nc3=O)cc2)nn1`, the midpoint of inhibition, the IC50, lay at 2600 nM.

Compound `Nc1nc(=O)n(Cc2ccc(-c3cn(CCCCc4ccc(C(=O)O)cc4)nn3)cc2)cc1F` registered an IC50 of 250 nM.

As for `CCOC(=O)CCCCCn1cc(-c2ccc(Cn3cnc(N)nc3=O)cc2)nn1`, the IC50 came to 530 nM.

`CCOC(=O)CCCCCCn1cc(-c2ccc(Cn3ccc(=O)[nH]c3=O)cc2)nn1` had a half-maximal inhibitory concentration (IC50) of 2000 nM.

Consider `COC(=O)c1ccc(CCCCn2cc(-c3ccc(Cn4cc(F)c(N)nc4=O)cc3)nn2)cc1`, for which half-maximal inhibition (IC50) required 370 nM.

Turning to `Nc1ccn(Cc2ccc(-c3cn(CCCCC(=O)O)nn3)cc2)c(=O)n1`, the IC50 is 240 nM.

The compound `COC(=O)c1ccc(CCCCn2cc(-c3ccc(Cn4cnc(N)nc4=O)cc3)nn2)cc1` returned an IC50 of 360 nM.

For `COC(=O)c1ccc(CCCCn2cc(-c3ccc(Cn4cc(C)c(N)nc4=O)cc3)nn2)cc1`, half-maximal inhibition (IC50) was put at 240 nM.

In turn, `CCOC(=O)CCCCn1cc(Cn2cnc(N)nc2=O)nn1` registered an IC50 of 7690 nM.

Regarding `Nc1ccn(Cc2ccc(-c3cn(CCCC(=O)O)nn3)cc2)c(=O)n1`, the midpoint of inhibition, the IC50, lay at 560 nM.

As to `Nc1ccn(Cc2ccc(-c3cn(CCCCc4ccc(C(=O)O)cc4)nn3)cc2)c(=O)n1`, the IC50 is 1140 nM.

Regarding `CCOC(=O)CCCCn1cc(-c2ccc(Cn3cnc(N)nc3=O)cc2)nn1`, the IC50 was 880 nM.

With `CCOC(=O)CCCCn1cc(-c2ccc(Cn3ccc(N)nc3=O)cc2)nn1`, inhibition was half-maximal at 560 nM (IC50).

Regarding `CCOC(=O)CCCCCn1cc(-c2ccc(Cn3ccc(N)nc3=O)cc2)nn1`, the IC50 was determined as 600 nM.

Compound `CCOC(=O)CCCn1cc(-c2ccc(Cn3cnc(N)nc3=O)cc2)nn1` yielded an IC50 of 4590 nM.

Compound `CCOC(=O)CCCCCCn1cc(-c2ccc(Cn3cc(C)c(N)nc3=O)cc2)nn1` gave an IC50 of 770 nM.

`CCOC(=O)CCCn1cc(-c2ccc(Cn3ccc(N)nc3=O)cc2)nn1` returned an IC50 of 360 nM.

In the case of `Nc1ccn(Cc2ccc(-c3cn(CCCCCC(=O)O)nn3)cc2)c(=O)n1`, 4120 nM corresponded to half-maximal inhibition (IC50).

The compound `CCOC(=O)CCCCCCn1cc(Cn2cnc(N)nc2=O)nn1` yielded an IC50 of 430 nM.

With `CCOC(=O)CCCCCCn1cc(-c2ccc(Cn3ccc(N)nc3=O)cc2)nn1`, the IC50 amounted to 640 nM.

Consider `CCOC(=O)CCCCCCn1cc(-c2ccc(Cn3cnc4c(N)ncnc43)cc2)nn1`, for which the IC50 amounted to 9900 nM.

`COC(=O)c1ccc(CCCCn2cc(-c3ccc(Cn4ccc(N)nc4=O)cc3)nn2)cc1` came in with an IC50 of 180 nM.

In general, IC50 refers to the midpoint of a concentration-inhibition curve. A word on the inhibition: it is the share of the control response that was lost under treatment.

(Values after ChEMBL document CHEMBL5625280, “Discovery of novel nucleoside derivatives as selective lysine acetyltransferase p300 inhibitors for cancer therapy” (Bioorg Med Chem Lett, 2024).)
